# Measurements from BindingDB's records for patent US9670214 (Dana-Farber Cancer Institute, 2017).
# Columns and labels:
# [1] = biological target: Non-specific protein-tyrosine kinase (Homo sapiens, UniProt A9UEZ6); assay: Kinase Assay; conditions: pH 7.5
# Excerpt: (§1) Recombinant abl was expressed in Sf9 insect cells and purified as described above. Bcr-abl immune complexes were obtained with Ab-3 anti-abl monoclonal antibody (Oncogene Science) from Ba/F3.p210 lysates as previously described. […] (Calbiochem buffer and protocol). The reaction was stopped by addition of Laemmli buffer and the proteins were resolved by SDS-PAGE in a 4-20% gel. The phosphoproteins were visualized by autoradiography and the autophosphorylation quantitated using a phosphoimager (STORM, Molecular Devices).
# [2] = biological target: Non-specific protein-tyrosine kinase [T818I] (Homo sapiens, UniProt A9UEZ6, T818I); assay: Kinase Assay; conditions: pH 7.5
# Excerpt: as §1
# Non-specific protein-tyrosine kinase, sequence (A9UEZ6 whole entry): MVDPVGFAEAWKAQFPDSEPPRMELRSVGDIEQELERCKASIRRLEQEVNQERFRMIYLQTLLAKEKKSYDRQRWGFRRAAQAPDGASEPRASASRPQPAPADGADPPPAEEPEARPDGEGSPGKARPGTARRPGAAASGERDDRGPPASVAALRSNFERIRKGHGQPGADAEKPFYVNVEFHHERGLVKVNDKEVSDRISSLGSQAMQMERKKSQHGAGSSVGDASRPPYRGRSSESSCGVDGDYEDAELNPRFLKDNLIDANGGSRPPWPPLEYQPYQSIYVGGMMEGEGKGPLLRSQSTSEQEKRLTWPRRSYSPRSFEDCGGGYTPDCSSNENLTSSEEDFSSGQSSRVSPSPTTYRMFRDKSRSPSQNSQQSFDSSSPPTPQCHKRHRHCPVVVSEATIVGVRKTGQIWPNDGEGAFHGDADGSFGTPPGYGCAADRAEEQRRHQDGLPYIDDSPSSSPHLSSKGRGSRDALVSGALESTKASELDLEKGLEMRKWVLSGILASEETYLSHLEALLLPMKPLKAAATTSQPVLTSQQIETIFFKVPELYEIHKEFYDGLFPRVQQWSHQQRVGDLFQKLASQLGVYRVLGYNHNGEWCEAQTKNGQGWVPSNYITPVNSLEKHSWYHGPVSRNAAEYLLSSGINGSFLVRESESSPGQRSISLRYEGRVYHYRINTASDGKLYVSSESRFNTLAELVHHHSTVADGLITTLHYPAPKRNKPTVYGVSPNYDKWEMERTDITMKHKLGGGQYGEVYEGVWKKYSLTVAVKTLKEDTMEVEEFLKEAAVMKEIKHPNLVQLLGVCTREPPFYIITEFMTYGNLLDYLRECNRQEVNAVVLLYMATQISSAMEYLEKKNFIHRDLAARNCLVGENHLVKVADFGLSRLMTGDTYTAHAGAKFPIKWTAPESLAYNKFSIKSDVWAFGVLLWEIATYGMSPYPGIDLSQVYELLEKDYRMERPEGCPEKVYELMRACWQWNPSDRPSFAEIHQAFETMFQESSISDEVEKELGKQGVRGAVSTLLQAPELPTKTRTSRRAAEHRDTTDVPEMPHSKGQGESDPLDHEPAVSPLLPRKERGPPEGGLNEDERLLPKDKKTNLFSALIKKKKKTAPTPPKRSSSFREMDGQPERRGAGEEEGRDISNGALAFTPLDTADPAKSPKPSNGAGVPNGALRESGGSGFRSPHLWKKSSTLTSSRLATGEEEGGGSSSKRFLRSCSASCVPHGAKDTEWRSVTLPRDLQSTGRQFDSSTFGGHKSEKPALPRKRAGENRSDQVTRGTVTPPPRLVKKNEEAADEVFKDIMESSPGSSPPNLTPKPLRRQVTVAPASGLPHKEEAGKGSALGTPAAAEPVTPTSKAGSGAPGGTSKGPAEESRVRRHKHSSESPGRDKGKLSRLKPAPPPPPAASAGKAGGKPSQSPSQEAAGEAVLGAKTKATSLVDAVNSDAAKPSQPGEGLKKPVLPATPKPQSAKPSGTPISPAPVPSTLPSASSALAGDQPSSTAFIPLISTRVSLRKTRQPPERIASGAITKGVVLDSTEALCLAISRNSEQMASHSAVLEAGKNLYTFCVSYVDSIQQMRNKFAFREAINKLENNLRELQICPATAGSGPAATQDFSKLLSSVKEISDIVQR
# Non-specific protein-tyrosine kinase [T818I], sequence (A9UEZ6 as listed by the source T818I): as the sequence (A9UEZ6 whole entry) above, with T818I counted along it
structure (smiles),measurement,setting,value
"FC(F)(F)Oc1ccc(Nc2ncnc3c2cnn3Cc2cccnc2)cc1 [US9670214, TABLE 10.30]",IC50,[1],30 nM
same,IC50,[2],600 nM
